This is an account of results in patent US8048896B2, “Methods for inhibiting and breaking AGE complex formation” (Cell Viable Corporation, priority 2005, dated 2011).

Test [1] deals with AGE-derived protein crosslinks. Particulars: in vitro and in vivo; cited from earlier work.
Test [2] concerns the target AGE formed on glycated bovine serum albumin (Bos taurus, UniProt P02769). The experiment in a line: AGE-breaking ELISA on ribose-glycated bovine serum albumin. As to conditions: FIG. 1; various concentrations, 48 hr at 37° C.; ELISA with polyclonal anti-AGE-RNAse antibodies. Type of test: biochemical.
Description: Specifically, bovine serum albumin (10 mg/mL) was incubated with 0.5 M ribose in 0.4 M phosphate buffer, pH 7.5, containing 0.02% sodium azide for 24 hr at 37° C., followed by extensive dialysis for 24 hr at 4° C. to remove excess and reversibly bound ribose. AGE formation was then initiated by incubating 0.1 mg/mL (or 1:100 dilution in phosphate buffer) of the glycated protein at 37° C. Then the AGE formed were treated with various concentrations for the compounds for 48 hr at 37° C. Aliquots from each sample were taken and diluted with 0.1 M sodium carbonate buffer to 50 μg/mL. Then 50 μl of the diluted sample was added to wells of a 96-well polystyrene plate (1.0 μg/well) and incubated overnight at room temperature. The plates were washed thrice with PBS-0.05% Tween and blocked for 1 hr with Superblock blocking buffer. The amount of AGE in each treatment was then quantified by ELISA using polyclonal anti-AGE-RNAse antibodies. Percent AGE-breaking was calculated as: (100*(mean OD wells of control-mean OD wells with compound/mean OD wells control).
Test [3] relates to AGE crosslinks in tail tendon collagen of old diabetic rats. The experiment in a line: Acid solubility of tail tendon collagen treated with AGE-breakers. It is filed as biochemical, rat. As to conditions: FIG. 2; particularly at 1.0 and 10 mM concentrations. As to the method:
(§1) The effects of these compounds on AGE crosslinks that form in vivo in tail tendon collagen of old diabetic rats were determined. Non-diabetic rats served as controls. P values were calculated using unpaired Student's t-test. The extent of AGE crosslinking of tail tendon collagen formed in vivo was assessed by acid insolubility (FIG. 2, * P<0.05 vs. non-diabetic control; ** P<0.05 vs. diabetic control) and fluorescence measurements of collagen treated with AGE-breakers after pepsin (FIG. 3; * P<0.05 vs. diabetic control) or papain digestion (FIG. 4; * P<0.05 vs. non-diabetic control; ** P<0.05 vs. diabetic control). In each of FIGS. 2-4, panel A is LR-20, panel B is LR-23, panel C is LR-99 and panel D is LR-102.

For test [4] the test system is unchanged. The experiment in a line: Fluorescence of collagen treated with AGE-breakers after pepsin digestion. It is filed as biochemical, rat. As to conditions: FIG. 3; particularly at 1.0 and 10 mM concentrations. Here is the method: as §1
For test [5] the test system is unchanged. The experiment in a line: Fluorescence of collagen treated with AGE-breakers after papain digestion. Type of test: biochemical, rat. Particulars: FIG. 4; particularly at 1.0 and 10 mM concentrations. Here is the method:
as §1

AGE formed on glycated bovine serum albumin, sequence (P02769 25-607): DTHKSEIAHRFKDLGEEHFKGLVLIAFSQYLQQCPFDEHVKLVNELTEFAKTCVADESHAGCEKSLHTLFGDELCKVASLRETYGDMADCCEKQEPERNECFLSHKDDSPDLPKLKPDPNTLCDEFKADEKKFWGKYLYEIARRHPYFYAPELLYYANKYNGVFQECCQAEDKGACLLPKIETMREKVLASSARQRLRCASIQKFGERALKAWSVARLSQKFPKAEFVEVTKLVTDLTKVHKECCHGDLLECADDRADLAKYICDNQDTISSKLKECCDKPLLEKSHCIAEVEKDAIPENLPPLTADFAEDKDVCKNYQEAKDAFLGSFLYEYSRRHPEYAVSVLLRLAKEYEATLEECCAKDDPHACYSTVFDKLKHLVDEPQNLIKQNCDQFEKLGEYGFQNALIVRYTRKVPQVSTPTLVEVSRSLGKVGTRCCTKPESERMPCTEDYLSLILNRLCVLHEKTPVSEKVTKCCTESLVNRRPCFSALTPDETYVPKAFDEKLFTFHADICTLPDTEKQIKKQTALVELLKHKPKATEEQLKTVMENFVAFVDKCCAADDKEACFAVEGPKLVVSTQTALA

For the molecule `O=C(C[n+]1ccsc1)c1ccccc1.[Br-]` [N-phenacylthiazolium bromide (PTB), N-phenacylthiazolium bromide], the “cleavage of AGE-derived protein crosslinks” value in test [1] is “selectively cleaves AGE-derived protein crosslinks in vitro and in vivo”.
As for `Cc1ncc(CO)c(CN)c1O` [pyridoxamine], the “Percent AGE-breaking” value in test [2] was “concentration dependent AGE-breaking properties”.
On to `CC(C)(Oc1ccc(NC(=O)c2ccc(Cl)cc2)cc1)C(=O)N[C@@H](CSSC[C@H](NC(=O)C(C)(C)Oc1ccc(NC(=O)c2ccc(Cl)cc2)cc1)C(=O)O)C(=O)O` [LR-20, L-bis-[4-(4-chlorobenzamidophenoxyisobutyryl)cystine]], for which the “collagen solubility in weak acetic acid (acid insolubility)” value (shortened to “collagen solubility in weak acetic acid”) in test [3] was “increased collagen solubility”. Moreover, the “fluorescence associated with AGE crosslinks after pepsin digestion” value in test [4] is reported as “reduction of fluorescence”. In addition, the “fluorescence associated with AGE crosslinks after papain digestion” value in test [5] is “reduction of fluorescence”.
As to `CC(C)(Oc1ccc(NC(=O)Nc2cc(Cl)cc(Cl)c2)cc1)C(=O)NC1(C(=O)O)CCCCC1` [LR-23, 4-(3,5-dichlorophenylureido)phenoxyisobutyryl-1-amidocyclohexane-1-carboxylic acid], the “collagen solubility in weak acetic acid” value in test [3] is given as “increased collagen solubility”. In test [4], the “fluorescence associated with AGE crosslinks after pepsin digestion” value was “reduction of fluorescence”. For the same molecule, in test [5], the “fluorescence associated with AGE crosslinks after papain digestion” value is given as “reduction of fluorescence”.
On to `CC(C)(Oc1ccc(NC(=O)Nc2cc(Cl)cc(Cl)c2)cc1)C(=O)Nc1ccc(C(=O)O)cc1` [LR-99, 4-(3,5-dichlorophenylureidophenoxyisobutyryl)-4 amino benzoic acid], for which the “collagen solubility in weak acetic acid” value in test [3] is “increased collagen solubility”. Also, the “fluorescence associated with AGE crosslinks after pepsin digestion” value in test [4] was “reduction of fluorescence”. Besides, the “fluorescence associated with AGE crosslinks after papain digestion” value in test [5] was “reduction of fluorescence”.
For the molecule `CC(C)(Oc1ccc(N=Cc2ccc(C=Nc3ccc(OC(C)(C)C(=O)O)cc3)cc2)cc1)C(=O)O` [LR-102, 1,4-benzene-bis-(4-methyleneaminophenoxyisobutyric acid)], the “collagen solubility in weak acetic acid” value in test [3] is “increased collagen solubility”. Besides, in test [4], the “fluorescence associated with AGE crosslinks after pepsin digestion” value is “reduction of fluorescence”. Also, the “fluorescence associated with AGE crosslinks after papain digestion” value in test [5] is given as “reduction of fluorescence”.
